ChEMBL document CHEMBL3098040, “Design and Discovery of 2-Arylquinazolin-4-ones as Potent and Selective Inhibitors of Tankyrases” (ACS Med Chem Lett, 2013)

Experiments:
Homo sapiens [1] = species: Homo sapiens; assay: Selectivity ratio of IC50 for PARP1 (unknown origin) to IC50 for human tankyrase2
Homo sapiens [2] = species: Homo sapiens; assay: Selectivity ratio of IC50 for PARP1 (unknown origin) to IC50 for human tankyrase1
[3] = biological target: T1, Poly [ADP-ribose] polymerase tankyrase-1 (Homo sapiens, UniProt O95271); assay: Inhibition of human tankyrase1 after 30 mins by spectrophotometry
T1 sequence (O95271 whole entry): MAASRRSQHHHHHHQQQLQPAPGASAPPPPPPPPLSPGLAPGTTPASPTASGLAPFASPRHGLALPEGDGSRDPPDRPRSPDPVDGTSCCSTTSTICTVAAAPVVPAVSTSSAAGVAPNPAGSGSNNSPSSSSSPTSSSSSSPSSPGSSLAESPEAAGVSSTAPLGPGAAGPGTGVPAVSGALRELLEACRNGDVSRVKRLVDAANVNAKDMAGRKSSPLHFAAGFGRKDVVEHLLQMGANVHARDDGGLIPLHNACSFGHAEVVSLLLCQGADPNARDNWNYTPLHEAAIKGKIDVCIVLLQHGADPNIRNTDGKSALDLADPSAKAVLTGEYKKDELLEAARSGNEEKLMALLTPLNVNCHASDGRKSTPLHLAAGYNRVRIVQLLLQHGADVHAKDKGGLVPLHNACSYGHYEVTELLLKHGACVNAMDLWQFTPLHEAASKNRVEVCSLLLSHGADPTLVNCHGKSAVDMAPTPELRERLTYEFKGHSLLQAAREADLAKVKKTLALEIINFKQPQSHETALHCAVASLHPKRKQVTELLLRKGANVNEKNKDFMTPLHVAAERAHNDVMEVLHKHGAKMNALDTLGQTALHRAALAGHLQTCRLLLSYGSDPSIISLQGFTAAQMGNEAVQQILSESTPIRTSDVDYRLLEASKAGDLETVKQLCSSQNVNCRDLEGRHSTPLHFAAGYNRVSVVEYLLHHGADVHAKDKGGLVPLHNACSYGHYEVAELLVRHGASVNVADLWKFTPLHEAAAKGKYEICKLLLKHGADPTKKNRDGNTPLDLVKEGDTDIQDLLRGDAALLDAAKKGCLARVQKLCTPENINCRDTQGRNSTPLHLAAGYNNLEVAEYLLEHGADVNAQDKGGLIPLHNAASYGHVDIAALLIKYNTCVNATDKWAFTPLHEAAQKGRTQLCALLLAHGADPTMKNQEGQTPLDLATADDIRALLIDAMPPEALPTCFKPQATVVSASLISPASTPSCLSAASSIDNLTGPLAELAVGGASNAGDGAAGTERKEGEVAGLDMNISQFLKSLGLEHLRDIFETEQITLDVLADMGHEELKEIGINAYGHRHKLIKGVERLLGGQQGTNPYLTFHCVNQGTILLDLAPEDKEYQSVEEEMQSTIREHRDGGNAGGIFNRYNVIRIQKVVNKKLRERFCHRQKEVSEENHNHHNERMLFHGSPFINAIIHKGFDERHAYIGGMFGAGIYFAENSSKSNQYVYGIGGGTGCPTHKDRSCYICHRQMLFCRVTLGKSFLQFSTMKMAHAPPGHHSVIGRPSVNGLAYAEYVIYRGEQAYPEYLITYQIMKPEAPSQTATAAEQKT

[4] = biological target: T2, Poly [ADP-ribose] polymerase tankyrase-2 (Homo sapiens, UniProt Q9H2K2); assay: Inhibition of human tankyrase2 after 2 hrs by spectrophotometry
T2 sequence (Q9H2K2 whole entry): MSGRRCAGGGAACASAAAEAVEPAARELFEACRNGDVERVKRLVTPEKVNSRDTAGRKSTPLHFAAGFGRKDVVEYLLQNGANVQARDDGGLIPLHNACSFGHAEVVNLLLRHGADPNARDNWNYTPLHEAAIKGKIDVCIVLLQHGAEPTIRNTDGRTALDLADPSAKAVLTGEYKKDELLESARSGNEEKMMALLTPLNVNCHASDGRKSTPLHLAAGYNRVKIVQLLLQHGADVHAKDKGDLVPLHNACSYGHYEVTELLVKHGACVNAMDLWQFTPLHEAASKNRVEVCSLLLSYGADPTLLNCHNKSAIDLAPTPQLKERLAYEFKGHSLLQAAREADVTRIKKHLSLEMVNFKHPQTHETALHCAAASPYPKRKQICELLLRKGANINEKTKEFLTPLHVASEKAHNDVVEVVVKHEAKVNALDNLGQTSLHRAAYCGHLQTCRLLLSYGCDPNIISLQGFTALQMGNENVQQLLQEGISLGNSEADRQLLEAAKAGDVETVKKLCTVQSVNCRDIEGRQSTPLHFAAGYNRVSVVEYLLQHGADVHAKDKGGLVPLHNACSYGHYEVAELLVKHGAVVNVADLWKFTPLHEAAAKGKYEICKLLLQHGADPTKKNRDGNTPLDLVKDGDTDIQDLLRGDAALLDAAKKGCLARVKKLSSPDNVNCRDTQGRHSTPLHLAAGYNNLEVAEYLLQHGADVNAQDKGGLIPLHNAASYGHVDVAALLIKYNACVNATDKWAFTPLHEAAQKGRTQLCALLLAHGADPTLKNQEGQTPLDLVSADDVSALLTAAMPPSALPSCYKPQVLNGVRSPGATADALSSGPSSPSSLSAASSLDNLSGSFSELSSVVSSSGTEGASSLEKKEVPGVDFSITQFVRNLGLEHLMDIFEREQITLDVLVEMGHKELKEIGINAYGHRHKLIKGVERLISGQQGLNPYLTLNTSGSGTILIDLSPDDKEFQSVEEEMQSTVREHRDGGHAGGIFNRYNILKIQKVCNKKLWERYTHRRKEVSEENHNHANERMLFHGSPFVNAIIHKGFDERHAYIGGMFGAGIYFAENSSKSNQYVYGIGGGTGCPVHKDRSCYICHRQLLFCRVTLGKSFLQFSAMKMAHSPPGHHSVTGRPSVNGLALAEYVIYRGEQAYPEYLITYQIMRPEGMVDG

[5] = biological target: Inosine-5'-monophosphate dehydrogenase 2 (Homo sapiens, UniProt P12268); assay: Inhibition of human recombinant IMPDH2 by spectrophotometry
[6] = biological target: Poly [ADP-ribose] polymerase 1 (Homo sapiens, UniProt P09874); assay: Inhibition of PARP1 (unknown origin) after 1 hr by spectrophotometry
Chain of Poly [ADP-ribose] polymerase 1 (P09874 whole entry): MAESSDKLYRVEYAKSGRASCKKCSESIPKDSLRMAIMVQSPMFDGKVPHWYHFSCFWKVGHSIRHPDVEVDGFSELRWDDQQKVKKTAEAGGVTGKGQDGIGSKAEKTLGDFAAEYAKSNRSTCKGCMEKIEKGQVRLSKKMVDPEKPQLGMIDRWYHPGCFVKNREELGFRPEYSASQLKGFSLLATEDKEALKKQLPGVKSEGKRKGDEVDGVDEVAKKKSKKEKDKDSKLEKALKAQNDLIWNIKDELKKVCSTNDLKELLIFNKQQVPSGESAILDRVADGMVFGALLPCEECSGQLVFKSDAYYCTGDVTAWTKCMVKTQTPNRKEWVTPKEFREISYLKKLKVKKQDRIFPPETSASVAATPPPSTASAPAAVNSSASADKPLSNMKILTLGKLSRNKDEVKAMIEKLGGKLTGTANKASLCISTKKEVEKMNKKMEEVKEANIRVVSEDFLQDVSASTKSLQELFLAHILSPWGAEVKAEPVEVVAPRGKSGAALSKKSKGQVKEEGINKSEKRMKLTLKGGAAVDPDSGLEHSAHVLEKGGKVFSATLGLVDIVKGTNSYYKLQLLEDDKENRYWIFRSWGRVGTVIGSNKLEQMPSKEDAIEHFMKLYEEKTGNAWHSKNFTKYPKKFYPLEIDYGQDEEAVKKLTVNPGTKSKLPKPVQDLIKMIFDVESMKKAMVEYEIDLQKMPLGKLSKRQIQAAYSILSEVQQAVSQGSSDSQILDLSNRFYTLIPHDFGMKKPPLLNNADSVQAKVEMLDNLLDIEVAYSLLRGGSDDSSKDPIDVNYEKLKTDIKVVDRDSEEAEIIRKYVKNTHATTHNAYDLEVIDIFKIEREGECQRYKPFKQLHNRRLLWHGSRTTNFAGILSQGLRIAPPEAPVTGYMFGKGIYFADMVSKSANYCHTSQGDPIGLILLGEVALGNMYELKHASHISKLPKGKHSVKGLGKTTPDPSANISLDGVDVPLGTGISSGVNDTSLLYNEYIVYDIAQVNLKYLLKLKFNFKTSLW

[7] = biological target: T3, Poly [ADP-ribose] polymerase tankyrase-2 (Homo sapiens) (UniProt Q9H2K2); assay: Inhibition of human tankyrase2 at 10 nM after 2 hrs by spectrophotometry
T3 sequence (whole entry): T2 sequence (Q9H2K2 whole entry)

SMILES	Ratio IC50 (Homo sapiens [1])	Ratio IC50 (Homo sapiens [2])	IC50 [3]	IC50 [4]	IC50 [5]	IC50 [6]	inhibition [7]
Cc1cccc2c(O)nc(-c3ccc(O)cc3)nc12	240	23	–	–	–	–	–
Cc1cccc2c(O)nc(-c3ccc(N)cc3)nc12	170	14	35 nM	3.3 nM	> 10 µM	504 nM	–
O=c1[nH]c(-c2ccc([N+](=O)[O-])cc2)nc2ccccc12	–	–	–	–	–	–	2%
COc1cccc2c(=O)[nH]c(-c3ccc(Cl)cc3)nc12	–	–	–	–	–	–	25%
Cc1cccc2c(=O)[nH]c(-c3ccc(O)cc3)nc12	–	–	52 nM	3 nM	> 10 µM	1200 nM	–
Cc1cccc2c(=O)[nH]c(-c3ccc(Br)cc3)nc12	> 830	> 150	32 nM	5.5 nM	> 10 µM	> 5000 nM	–
Cc1ccc(-c2nc3c(C)cccc3c(=O)[nH]2)cc1	–	–	35 nM	6.7 nM	> 10 µM	685 nM	–
COc1ccc(-c2nc3c(C)cccc3c(=O)[nH]2)cc1	–	–	37 nM	12 nM	> 10 µM	891 nM	–
Cc1cccc2c(=O)[nH]c(-c3ccc(F)cc3)nc12	–	–	44 nM	40 nM	> 10 µM	> 5000 nM	–
O=c1[nH]c(-c2ccc(Cl)cc2)nc2c(O)cccc12	–	–	–	–	–	–	32%
Cc1cccc2c(O)nc(-c3ccc([N+](=O)[O-])cc3)nc12	–	–	32 nM	30 nM	> 10 µM	–	–
Cc1cccc2c(=O)[nH]c(-c3ccccc3)nc12	–	–	42 nM	41 nM	> 10 µM	795 nM	–
Cc1cccc2c(=O)[nH]c(-c3ccc(CNC(=O)OCc4ccccc4)cc3)nc12	> 110	> 70	73 nM	44 nM	> 10 µM	> 5000 nM	–
Cc1cccc2c(=O)[nH]c(-c3ccc(Cl)cc3)nc12	–	–	36 nM	33 nM	> 10 µM	> 5000 nM	49%
Oc1nc(-c2ccc(C(F)(F)F)cc2)nc2c1CSCC2	–	–	–	–	> 10 µM	–	–
Cc1cccc2c(O)nc(-c3ccc(C(F)(F)F)cc3)nc12	> 500	> 100	48 nM	10 nM	> 10 µM	> 5000 nM	–
